Assays:
Type in all cases: in vivo, C57BL/6J mice
[1] = tested on: fatty acid synthase (FAS); assay: Hepatic lipid regulating enzyme activity: FAS; settings: FIG. 4B, liver cytoplasmic fraction, HFD+5% w/w in diet, 16 weeks
Procedure: First, 4-week-old male C57BL/6J mice (60 total) were purchased from Jackson Laboratory. The animals were acclimated to the vivarium in a thermo-hygrostat (20-23° C., 45-65%) under a 12 h light/dark cycle and fed a pelletized commercial non-purified diet for 1 week after arrival. The mice were then randomly divided into 6 groups (n=10) and fed the respective experimental diets for 16 weeks: normal diet group (ND, American Institute of Nutrition (AIN)-76 semi-synthetic diet), high-fat diet group (HFD, 20% fat+1% cholesterol based on AIN-76 diet), PSI group (HFD+5% D-psicose, w/w, Sigma Chemical Company), ERY group (HFD+5% erythritol, w/w, Sigma Chemical Company), GLU group (HFD+5% D-glucose, w/w, Sigma Chemical Company), and FRU group (HFD+5% D-fructose, w/w, Sigma Chemical Company). All high-fat diet-fed groups were allowed to ingest the same calories by pair feeding based on the PSI group. The mice had ad libitum access to distilled water during the experimental period. Their feed intakes and body weights were measured daily and biweekly, respectively. The organ weights and the adipose tissue weights of the mice were measured after sacrificing the animals. Samples were prepared and analyzed according to the method developed by Hulcher and Oleson. Specifically, the activity of fatty acid synthase (FAS) as a hepatic lipid regulating enzyme was measured by spectrophotometric assay according to the method described by Nepokroeff et al. Each sample was mixed with 100 μl of cytoplasmic fraction and the mixture was allowed to react at 30° C. for 2 min. A reduction in absorbance at 340 nm was measured. Fatty acid synthase (FAS) activity units were expressed as nanomoles (nmol) of NADPH oxidized for 1 min per mg of cytoplasmic fraction. Fatty acid β-oxidation activity was measured by monitoring the reduction of NAD^+ to NADH in the presence of palmitoyl-CoA, as described by Lazarow. β-oxidation activity units were expressed as nanomoles (nmol) of NADH produced for 1 min per mg of mitochondrial protein.

[2] = tested on: ABCG8 (ATP-binding cassette sub-family G member8, 67470); assay: Small intestine mRNA expression, real-time quantitative PCR: ABCG8; settings: high-fat diet-fed obese mice
Procedure: (§1) First, 4-week-old male C57BL/6J mice (60 total) were purchased from Jackson Laboratory. The animals were acclimated to the vivarium in a thermo-hygrostat (20-23° C., 45-65%) under a 12 h light/dark cycle and fed a pelletized commercial non-purified diet for 1 week after arrival. […] Their feed intakes and body weights were measured daily and biweekly, respectively. The organ weights and the adipose tissue weights of the mice were measured after sacrificing the animals.
(§2) Samples were prepared and analyzed as previously described. Specifically, total RNA was synthesized into cDNA using a QuantiTect Reverse Transcription kit (QIAGEN Gmb1h, Hilden, Germany). RNA expression was quantified with real-time quantitative PCR using a QuantiTect SYBR Green PCR kit (QIAGEN Gmb1h, Hilden, Germany). […] Fluorescence signals were monitored every cycle and the resulting threshold cycles (Ct) were analyzed. mRNA expression in each experimental group was quantified using a CFX96 Real time system (Bio-rad, USA).

[3] = tested on: high-fat diet-induced obese mice; assay: Body weight, organ weight and adipose tissue weight of high-fat diet-induced obese mice; settings: for BWG (weight gain) / Organ weights: Liver / Adipose times weight: Epididymal fat / Adipose times weight: Interscapular BAT / Adipose times weight: Interscapular WAT / Adipose times weight: Mesentery fat / Adipose times weight: Perinephric fat / Adipose times weight: Retroperitoneum fat / Adipose times weight: Subcutaneous fat / Adipose times weight: Total WAT / Adipose times weight: Visceral fat / FER (food efficiency ratio = Weight gain/diet intake) / FinalBodyweight / Organ weights: Kidney / Organ weights: Muscle: HFD+5% w/w in diet, 16 weeks
Procedure: (§3) First, 4-week-old male C57BL/6J mice (60 total) were purchased from Jackson Laboratory. The animals were acclimated to the vivarium in a thermo-hygrostat (20-23° C., 45-65%) under a 12 h light/dark cycle and fed a pelletized commercial non-purified diet for 1 week after arrival. The mice were then randomly divided into 6 groups (n=10) and fed the respective experimental diets for 16 weeks: normal diet group (ND, American Institute of Nutrition (AIN)-76 semi-synthetic diet), high-fat diet group (HFD, 20% fat+1% cholesterol based on AIN-76 diet), PSI group (HFD+5% D-psicose, w/w, Sigma Chemical Company), ERY group (HFD+5% erythritol, w/w, Sigma Chemical Company), GLU group (HFD+5% D-glucose, w/w, Sigma Chemical Company), and FRU group (HFD+5% D-fructose, w/w, Sigma Chemical Company). All high-fat diet-fed groups were allowed to ingest the same calories by pair feeding based on the PSI group. The mice had ad libitum access to distilled water during the experimental period. Their feed intakes and body weights were measured daily and biweekly, respectively. The organ weights and the adipose tissue weights of the mice were measured after sacrificing the animals.

[4] = tested on: ABCG5 (ATP-binding cassette sub-family G member5, 27409); assay: Small intestine mRNA expression, real-time quantitative PCR: ABCG5; settings: high-fat diet-fed obese mice
Procedure: as §1, §2

[5] = tested on: high-fat diet-induced obese mice; assay: Hepatic lipid profiles; settings: FIG. 4A, HFD+5% w/w in diet, 16 weeks
Procedure: as §3
Hepatic lipids were extracted from mice in the normal diet group (ND) and high-fat diet groups (HFD, ERY, GLU, FRU, and PSI) and dried. Then, each of the dried hepatic lipid extracts was dissolved in 1 ml of ethanol. 200 μl of the lipid solution was emulsified in a solution of Triton X-100 and sodium cholate in distilled water. Hepatic fatty acid, triglyceride, and cholesterol levels were analyzed using the same enzymatic kits as those used in Example 2.

[6] = tested on: high-fat diet-induced obese mice; assay: Hepatic tissue morphologies (H&E); settings: FIG. 4C, 200×, HFD+5% w/w in diet, 16 weeks
Procedure: as §3
Liver tissues were removed from the mice in the normal diet group (ND) and high-fat diet groups (HFD, ERY, GLU, FRU, and PSI) and fixed in a buffer solution of 10% formalin. The fixed liver tissues were embedded in paraffin. […] sections were prepared from the liver tissues and their cross-sections were dyed with hematoxylin and eosin. Stained areas were observed using an optical microscope at a magnification of 200× (Nikon, Tokyo, Japan).

Structure (SMILES) | hepatic FAS activity [1] | BWG (weight gain) [3] [g/16 weeks] | Organ weights: Liver [3] [g/100 g Bodyweight] | hepatic cholesterol level [5] | hepatic fatty acid level [5] | hepatic triglyceride level [5] | accumulation / size of adipocytes in the liver tissues [6] | Adipose times weight: Epididymal fat [3] [g/100 g Body weight] | Adipose times weight: Interscapular BAT [3] [g/100 g Body weight] | Adipose times weight: Interscapular WAT [3] [g/100 g Body weight] | Adipose times weight: Mesentery fat [3] [g/100 g Body weight] | Adipose times weight: Perinephric fat [3] [g/100 g Body weight] | Adipose times weight: Retroperitoneum fat [3] [g/100 g Body weight] | Adipose times weight: Subcutaneous fat [3] [g/100 g Body weight] | Adipose times weight: Total WAT [3] [g/100 g Body weight] | Adipose times weight: Visceral fat [3] [g/100 g Body weight] | FER (food efficiency ratio = Weight gain/diet intake) [3] | FinalBodyweight [3] [g] | Organ weights: Kidney [3] [g/100 g Bodyweight] | Organ weights: Muscle [3] [g/100 g Bodyweight] | also measured
O=C(CO)[C@H](O)[C@H](O)[C@H](O)CO [PSI, D-psicose] | decreased significantly compared to those in other high-fat diet groups | 0.70 | 4.35 | decreased significantly compared to those in other high-fat diet groups | decreased significantly compared to those in other high-fat diet groups | decreased significantly compared to those in other high-fat diet groups | smaller than that in the liver tissues of other high-fat diet groups |  |  |  |  |  |  |  |  |  |  |  |  |  | mRNA expression of ABCG8 (gene involved in lipid excretion) [2]: reduces mRNA expression; increases in the body weight over time ([3]; FIG. 1, HFD+5% w/w in diet, measured biweekly over 16 weeks): considerably inhibited from 4 weeks after diet feeding; Organ weights: Liver ([3]; listed as D-psicose): to levels similar to those of the ND group; mRNA expression of ABCGS (gene involved in lipid excretion) [4]: reduces mRNA expression
OC[C@@H](O)[C@@H](O)CO [ERY, erythritol] | increased significantly compared to those in the ND group | 1.32 | 5.37 | significantly higher than those in the ND group | significantly higher than those in the ND group | significantly higher than those in the ND group | more distinctly observed than in the liver tissues of the ND group | 7.92 | 0.57 | 4.56 | 2.43 | 0.92 | 2.21 | 4.88 | 22.93 | 18.36 | 0.059 | 40.22 | 0.77 | 0.77 | 
O=C(CO)[C@@H](O)[C@H](O)[C@H](O)CO [FRU, D-fructose] | increased significantly compared to those in the ND group | 1.39 | 5.68 | significantly higher than those in the ND group | significantly higher than those in the ND group | significantly higher than those in the ND group | more distinctly observed than in the liver tissues of the ND group | 8.50 | 0.73 | 4.43 | 2.93 | 1.17 | 2.19 | 3.78 | 22.65 | 18.22 | 0.065 | 41.26 | 0.84 | 0.83 | 
O=C[C@H](O)[C@@H](O)[C@H](O)[C@H](O)CO [GLU, D-glucose] | increased significantly compared to those in the ND group | 1.39 | 5.22 | significantly higher than those in the ND group | significantly higher than those in the ND group | significantly higher than those in the ND group | more distinctly observed than in the liver tissues of the ND group | 8.42 | 0.71 | 4.54 | 2.62 | 1.15 | 2.01 | 5.47 | 24.21 | 19.67 | 0.065 | 41.77 | 0.74 | 0.82 | 
